This passage reports IC50 results from patent publication US10087166B2, “Cyclic amine azaheterocyclic carboxamides” (Merck Patent GmbH, priority 2010, dated 2018).

The test concerns the target T1, P70S6K (Homo sapiens, UniProt P23443, T412E).
T1 construct: purchased Millipore
In words: P70S6K enzyme assay. To be noted: P70S6K T412E mutant 3 nM, 24 μM ATP, FITC-AHA-AKRRRLSSLRA-OH substrate, 90 min at 25° C.; read-out: IC50p70S6K. It is filed as biochemical. The protocol:
P70S6K inhibitor compounds are diluted and plated in 96 well plates. A reaction mixture including the following components is then added to the compound plate to initiate the enzyme reaction; P70S6K (3 nM, T412E mutant, Millipore) is mixed with 24 μM ATP in an assay buffer containing 100 mM Hepes (pH 7.5), 5 mM MgCl2, 1 mM DTT, 0.015% Brij and 1 μM of the substrate peptide FITC-AHA-AKRRRLSSLRA-OH (derived from the S6 ribosomal protein sequence, FITC=fluorescein isothiocyanate, AHA=6-aminohexanoic acid). The reaction is incubated for 90 min at 25° C., before the addition of 10 mM EDTA to stop the reaction. The proportion of substrate and product (phosphorylated) peptide is analyzed on a Caliper Life Sciences Lab Chip 3000, using a pressure of −1.4 psi, and upstream and downstream voltages of −3000 and −700 respectively. Product peaks are resolved before substrate peaks on the resulting chromatograms.
To assess the inhibitory potential of the compounds, IC50-values were determined, as shown in Chemical Synthesis section above.

T1 sequence (P23443 whole entry T412E): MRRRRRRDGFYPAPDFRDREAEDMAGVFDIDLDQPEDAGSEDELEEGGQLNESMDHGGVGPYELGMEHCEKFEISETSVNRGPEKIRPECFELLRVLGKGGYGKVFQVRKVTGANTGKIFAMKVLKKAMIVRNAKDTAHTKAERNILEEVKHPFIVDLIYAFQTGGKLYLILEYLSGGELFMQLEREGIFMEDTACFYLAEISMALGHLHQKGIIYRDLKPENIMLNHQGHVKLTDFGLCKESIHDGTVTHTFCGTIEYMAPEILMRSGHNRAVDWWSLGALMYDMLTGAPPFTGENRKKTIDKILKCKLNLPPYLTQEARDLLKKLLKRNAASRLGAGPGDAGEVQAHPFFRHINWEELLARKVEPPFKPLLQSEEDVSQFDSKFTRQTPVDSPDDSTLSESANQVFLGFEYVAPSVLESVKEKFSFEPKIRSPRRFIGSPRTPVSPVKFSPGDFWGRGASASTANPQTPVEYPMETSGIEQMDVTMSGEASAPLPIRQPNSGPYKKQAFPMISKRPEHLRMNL

Take `NC(=O)c1cccc2c(N[C@@H]3CNC[C@H]3c3cccc(F)c3)ncnc12` [compound 67, 4-(((3S,4R)-4-(3-fluorophenyl)pyrrolidin-3-yl)amino)quinazoline-8-carboxamide]: the IC50 came out at 0.00154 µM. With `NC(=O)c1cccc2c(N[C@H]3CNC[C@@H]3c3cccc(F)c3)ncnc12` [compound 68, 4-(((3R,4S)-4-(3-fluorophenyl)pyrrolidin-3-yl)amino)quinazoline-8-carboxamide], the IC50 amounted to 0.048 µM. The result for `NC(=O)c1cccc2c(N[C@H]3CNC[C@@H]3c3ccc4ncccc4c3)ncnc12` [compound 70, 4-(((3R,4S)-4-(quinolin-6-yl)pyrrolidin-3-yl)amino)quinazoline-8-carboxamide] reads 0.0033 µM. Under `NC(=O)c1cccc2c(N[C@@H]3CNC[C@H]3c3ccc4ncccc4c3)ncnc12` [compound 71, 4-(((3S,4R)-4-(quinolin-6-yl)pyrrolidin-3-yl)amino)quinazoline-8-carboxamide] stands 0.062 µM. `COc1cccc([C@H]2CNC[C@@H]2Nc2ncnc3c(C(N)=O)cccc23)c1` [compound 72, 4-(((3R,4S)-4-(3-methoxyphenyl)pyrrolidin-3-yl)amino)quinazoline-8-carboxamide]: the IC50 came to 0.36 µM. Consider `COc1cccc([C@@H]2CNC[C@H]2Nc2ncnc3c(C(N)=O)cccc23)c1` [compound 73, 4-(((3S,4R)-4-(3-methoxyphenyl)pyrrolidin-3-yl)amino)quinazoline-8-carboxamide], for which the IC50 is 0.0064 µM.

Regarding `Cc1cc([C@H]2CNC[C@@H]2Nc2ncnc3c(C(N)=O)cccc23)ccc1F` [compound 75, 4-(((3R,4S)-4-(4-fluoro-3-methylphenyl)pyrrolidin-3-yl)amino)quinazoline-8-carboxamide], the IC50 stood at 0.064 µM. Under `Cc1cc([C@@H]2CNC[C@H]2Nc2ncnc3c(C(N)=O)cccc23)ccc1F` [compound 76, 4-(((3S,4R)-4-(4-fluoro-3-methylphenyl)pyrrolidin-3-yl)amino)quinazoline-8-carboxamide] stands 0.0034 µM. The result for `NC(=O)c1cccc2c(N[C@@H]3CNC[C@H]3c3cccc4ccccc34)ncnc12` [compound 79, 4-(((3S,4R)-4-(naphthalen-1-yl)pyrrolidin-3-yl)amino)quinazoline-8-carboxamide] reads 0.0012 µM; that for `NC(=O)c1cccc2c(N[C@H]3CNC[C@@H]3c3ccc4ccccc4c3)ncnc12` [compound 80, 4-(((3R,4S)-4-(naphthalen-2-yl)pyrrolidin-3-yl)amino)quinazoline-8-carboxamide], 0.024 µM; that for `Cc1nc(N[C@H]2CNC[C@@H]2c2cccc(F)c2)c2cccc(C(N)=O)c2n1` [compound 83, 4-(((3R,4S)-4-(3-fluorophenyl)pyrrolidin-3-yl)amino)-2-methylquinazoline-8-carboxamide], 0.16 µM. Under `Cc1nc(N[C@@H]2CNC[C@H]2c2cccc(F)c2)c2cccc(C(N)=O)c2n1` [compound 84, 4-(((3S,4R)-4-(3-fluorophenyl)pyrrolidin-3-yl)amino)-2-methylquinazoline-8-carboxamide] stands 0.0017 µM.

Turning to `N#Cc1cccc([C@H]2CNC[C@@H]2Nc2ncnc3c(C(N)=O)cccc23)c1` [compound 87, 4-(((3R,4S)-4-(3-cyanophenyl)pyrrolidin-3-yl)amino)quinazoline-8-carboxamide], the IC50 amounted to 0.081 µM. With `N#Cc1cccc([C@@H]2CNC[C@H]2Nc2ncnc3c(C(N)=O)cccc23)c1` [compound 88, 4-(((3S,4R)-4-(3-cyanophenyl)pyrrolidin-3-yl)amino)quinazoline-8-carboxamide], the IC50 was determined as 0.0024 µM. The result for `NC(=O)c1cccc2c(N[C@H]3CNC[C@@H]3c3ccc4c(c3)CCO4)ncnc12` [compound 90, 4-(((3R,4S)-4-(2,3-dihydrobenzofuran-5-yl)pyrrolidin-3-yl)amino)quinazoline-8-carboxamide] reads 0.004 µM; that for `NC(=O)c1cccc2c(N[C@@H]3CNC[C@H]3c3ccc4c(c3)CCO4)ncnc12` [compound 91, 4-(((3S,4R)-4-(2,3-dihydrobenzofuran-5-yl)pyrrolidin-3-yl)amino)quinazoline-8-carboxamide], 0.053 µM; that for `Cc1c(F)cccc1[C@H]1CNC[C@@H]1Nc1ncnc2c(C(N)=O)cccc12` [compound 93, 4-(((3R,4S)-4-(3-fluoro-2-methylphenyl)pyrrolidin-3-yl)amino)quinazoline-8-carboxamide], 0.0012 µM. The result for `Cc1c(F)cccc1[C@@H]1CNC[C@H]1Nc1ncnc2c(C(N)=O)cccc12` [compound 94, 4-(((3S,4R)-4-(3-fluoro-2-methylphenyl)pyrrolidin-3-yl)amino)quinazoline-8-carboxamide] reads 0.052 µM. Under `NC(=O)c1cccc2c(N[C@H]3CNC[C@@H]3c3cccc(Cl)c3)ncnc12` [compound 95, 4-(((3R,4S)-4-(3-chlorophenyl)pyrrolidin-3-yl)amino)quinazoline-8-carboxamide] stands 0.048 µM; under `COc1ccc([C@@H]2CNC[C@H]2Nc2ncnc3c(C(N)=O)cccc23)cc1` [compound 96, 4-(((3S,4R)-4-(4-methoxyphenyl)pyrrolidin-3-yl)amino)quinazoline-8-carboxamide], 0.0041 µM. Consider `COc1ccc([C@H]2CNC[C@@H]2Nc2ncnc3c(C(N)=O)cccc23)cc1` [compound 97, 4-(((3R,4S)-4-(4-methoxyphenyl)pyrrolidin-3-yl)amino)quinazoline-8-carboxamide], for which the IC50 is 0.081 µM. Under `NC(=O)c1cccc2c(N[C@@H]3CNC[C@H]3c3ccc(Cl)c(F)c3)ncnc12` [compound 101, 4-(((3S,4R)-4-(4-chloro-3-fluorophenyl)pyrrolidin-3-yl)amino)quinazoline-8-carboxamide] stands 0.0011 µM; under `NC(=O)c1cccc2c(N[C@@H]3CNC[C@H]3c3cc(F)c(F)cc3F)ncnc12` [compound 106, 4-(((3S,4R)-4-(2,4,5-trifluorophenyl)pyrrolidin-3-yl)amino)quinazoline-8-carboxamide], 0.0028 µM; under `NC(=O)c1cccc2c(N[C@H]3CNC[C@@H]3c3ccc(Cl)c(F)c3)ncnc12` [compound 112, 4-(((3R,4S)-4-(4-chloro-3-fluorophenyl)pyrrolidin-3-yl)amino)quinazoline-8-carboxamide], 0.33 µM. The result for `NC(=O)c1cccc2c(N[C@@H]3CNCC[C@H]3c3ccc(C(F)(F)F)cc3)ncnc12` [compound 128] reads 0.23 µM.

With `NC(=O)c1cccc2c(N[C@H]3CNCC[C@@H]3c3ccc(C(F)(F)F)cc3)ncnc12` [compound 129, 4-(((3R,4R)-4-(4-(trifluoromethyl)phenyl)piperidin-3-yl)amino)quinazoline-8-carboxamide], the IC50 amounted to 0.0012 µM. The result for `NC(=O)c1cccc2c(N[C@H]3CNCC[C@@H]3c3cccc(C(F)(F)F)c3)ncnc12` [compound 130, 4-(((3R,4R)-4-(3-(trifluoromethyl)phenyl)piperidin-3-yl)amino)quinazoline-8-carboxamide] reads 0.0012 µM; that for `NC(=O)c1cccc2c(N[C@@H]3CNCC[C@H]3c3cccc(C(F)(F)F)c3)ncnc12` [compound 131, 4-(((3S,4S)-4-(3-(trifluoromethyl)phenyl)piperidin-3-yl)amino)quinazoline-8-carboxamide], 0.16 µM.
